Reference: patent EP0017484A1, “2-Imidazoline derivatives, process for the preparation thereof and the pharmaceutical composition of the same” (FUJISAWA PHARMACEUTICAL CO., LTD., priority 1979, dated 1980)

Legend:
Sprague-Dawley rats = assay: Anti-inflammatory activity: carrageenin hind paw edema; assay type: in vivo; conditions: 100 mg/kg orally 60 minutes before carrageenin (1.5%, 0.1 ml); paw weight after 3 hours versus control animals
Method: Ten Sprague-Dawley rats were used per group. The right hind paw of the rat was injected subcutaneously under the plantar surface with 0.1 ml of carrageenin (1.5%). After 3 hours, the animals were sacrificed. The normal and edematous hind paws were cut off at the tibio-dorsal joint and weighed. The difference in the weight of edematous paw and that of normal paw was a measure of the edema. The test compound (100 mg/kg) was administered orally 60 minutes before the irritating agent. Paw swelling of treated animals was compared with that of control animals.

male ddy strain mice = assay: Analgesic activity: acetic acid writhing syndrome; assay type: in vivo; conditions: Mus musculus, po; orally 60 minutes before i.p. 0.6% acetic acid; writhing observed from 3 to 13 minutes; Litchfield-Wilcoxon method
Method: Ten male ddy strain mice were used for each dose. To estimate the frequency of writhing syndrome, the animals were observed from 3 to 13 minutes after an intraperitoneal injection of 0.2 ml/10 g of 0.6% acetic acid. The drugs were given orally 60 minutes before acetic acid. The frequency of writhing syndrome in the treated animals was compared with that in the non-treated control animals.
The ED50 value was calculated according to Litchfield-Wilcoxon method.

`Cc1ccc(NC2=NCCN2)c(Oc2ccccc2)c1` [2-(2-Phenoxy-4-methylphenyl)amino-2-imidazoline] gave an Inhibitory effect (Sprague-Dawley rats) of 48.4%.
`COc1cc(Oc2ccccc2NC2=NCCN2)cc(OC)c1OC` [2-[2-(3,4,5-Trimethoxyphenoxy)phenyl]amino-2-imidazoline] showed an ED50 (male ddy strain mice) of 50.1 mg/kg.
